From patent US4874780A, “Anticancer compounds” (Norsk Hydro a.s., priority 1987, dated 1989)
Where two headings read alike, the source gives them in different places.

Columns and labels:
[1] = BG or BG-d1 metabolites in blood samples after iv injection (HPLC peak height); assay type: in vivo, male Wistar rats; details: rat
Method: (§1) Blood samples were taken from male Wistar rats immediately before and at several intervals after intravenous injection of BG or BG-d1. Blood serum was separated by centrifugation. Equal amounts of blood serum and HPLC-grade acetonitrile were mixed and centrifuged at 13,000 rpm (15,000×g) for 5 minutes. Samples were then analyzed for BG or BG-d1 content by High Performance Liquid Chromatography (HPLC). Samples were placed in an autosampler programmed for replicate injections of […] each onto a 4.6×250 mm LC18 HPLC column. The column was eluted with 45% aqueous methanol delivered at 1 ml/min. BG or BG-d1 were detected by using a spectrofluorometer set at excitation and emission wavelengths of 255 and 283 nm, respectively. The slit width used was 10 nm. Quantitation of the amount of BG or BG-d1 in serum samples was performed with an electronic integrator calibrated with standard solutions of BG or BG-d1 in the mobile phase (Pettersen et al., Anticancer Res., 6; 147-152, 1986).
Measurement of BG or BG-d1 metabolites in blood samples (Table 6)
HPLC of blood samples was performed as indicated above. Relative amounts of BG- or BG-d1 -metabolite were determined by peak height analysis. The peak height from the electronic integrator (in microvolts) of samples taken 30 minutes after iv injection of BG, or 60 minutes after iv injection of BG-d1 were normalized to 1. All other metabolite peaks were compared with these values.
At the same time as BG or BG-d1 metabolism was being determined, a separate metabolite peak appeared in HPLC chromatograms. The increase in BG- and BG-d1 -metabolite and subsequent clearance was measured.

NHIK 3025 cells [2] = details: Pettersen et al. 1983, cited from earlier work
NHIK 3025 cells [3] = assay: Protein synthesis rate ((3H)valine incorporation); assay type: cell-based, human; details: 3.2 mM
Source text: (§2) Human cells of the established line NHIK 3025, originating from a cervical carcinoma in situ (Nordbye, K., and Oftebro, R. Exp. Cell Res., 58: 458, 1969), Oftebro, R., and Nordbye, K., Exp. Cell Res., 58: 459-460, 1969) were cultivated in Medium E2a (Puck, T.T. et al., J. Exp. Med., 106:145-165, 1957) supplemented with 20% human (prepared at the laboratory) and 10% horse serum (Grand Island Biological Co.). The cells are routinely grown as monolayers in tissue culture flasks.
(§3) The cells were kept in continuous exponential growth by frequent reculturing, i.e., every second and third day, and synchronized cell populations with a high degree of synchrony were obtained by repeated selection of mitotic cells (Pettersen, E. O. et al, Cell Tissue Kinet., 10: 511-522, 1977). During the synchronization procedure, the cells were kept in Medium E2a, and the whole experiment took place in a walk-in incubator at 37° C. Under growth conditions as used here, the NHIK 3025 cells have a medium cell-cycle time of ~18 hr, with medium G1, S1 and G2 durations of ~7, ~8, and ~2.5 hr, respectively.
The rate of protein synthesis was calculated as described previously (Ronning, O. W. et al., J. Cell Physiol., 107: 47-57, 1981). Briefly, cellular protein was labeled to saturation during a 2-day preincubation with (^14 C)valine of constant specific radioactivity (0.5 Ci/mol) prior to the experiment. This was achieved by using a high concentration of valine so that the dilution of (^14 C)valine by intracellular valine and by proteolytically generated valine will be negligible (Ronning, O. W., et al. Exp. Cell Res. 123: 63-72, 1979), thus keeping the specific radioactivity at a constant level. The rate of protein synthesis was calculated from the incorporation of (3H)valine of constant specific activity. The incorporation measurements were related to the total of (^14 C) radioactivity in protein at the beginning of the respective measurement periods and expressed as the percentage per hr (Ronning, O. W. et al, J. Cell, Physiol. 107: 47-57, 1981).
[…] The last measurements were done to test the reversibility of the drugs. Drug concentration: 3.2 mM.

NHIK 3025 cells [4] = assay: Cell survival (colony formation) after 24 hr treatment; assay type: cell-based; details: Homo sapiens, NHIK3025, 24 h
Source text: as §2, §3
For measurement of cell survival, appropriate numbers of cells were seeded in plastic Petri dishes (.phi.=5 cm). The number of cells seeded into each dish was adjusted such that the number of surviving cells would be approximately 150 per dish. While exponentially growing (asynchronous) cells were trypsinized before seeding, synchronized cells were seeded immediately after selection. After about 2 hr, the cells had attached to the bottom of the dishes, and the treatment was started by replacing the medium with medium containing the appropriate drug concentration. After the desired time of treatment, the drug-containing medium was removed, and fresh medium was added. The dishes were rinsed once with the same medium as was to be added on addition or removal of drug. After 10 to 12 days at 37° C. in a CO2 incubator, the cells were fixed in ethanol and stained with methylene blue before the colonies were counted.
The cytotoxic effect of benzaldehyde and of deuterobenzaldehyde-d1 was tested on asynchronous, exponentially growing NHIK 3025 cells by counting the number of cells able to form colonies after 24 hr treatment in Petri dishes. In Table 1 the results represent 2 different, independent experiments where the numbers give the mean fraction of surviving cells from 10 parallel dishes (± standard error).
Fraction of cells surviving 24 hr treatment with benzaldehyde or deuterobenzaldehyde - d1 in Petri dishes. (The values represent the mean±standard error from 10 different dishes.)

Stability in vitro = assay type: in vitro ADME
[5] = Concentration of BG or BG-d1 in blood samples after iv injection (HPLC); assay type: in vivo, male Wistar rats
Method: Measurement of concentration of 4,6-O-benzylidene-D-glucose (BG) or 4,6-O-deuterobenzylidene-d1 -D-glucose (BG-d1) in blood samples (Table 5).
as §1
We have compared the metabolism in rats of BG as well as of deuterated BG (BG-d1). In Table 5 the serum concentration of BG or BG-d1 is shown at various time points after a single iv injection of each drug, respectively.

NHIK 3025 cells [6] = details: Pettersen et al. 1983, cited from earlier work; remark: listed apart in the source
NHIK 3025 cells [7] = assay: Duration of cell cycle-time of synchronized cells; assay type: cell-based, human; details: 8 hr treatment
Source text: as §2, §3
(§4) For detection of the drug effects on cell-cycle kinetics, the same methods were used as described previously (Lindmo, T., and Pettersen, E. O., Cell Tissue Kinet., 12: 43-57, 1979), (Pettersen, E. O. et al, Eur. J. Cancer Clin. Oncol., 19: 507-514; 1983), (Ronning, O.W. et al., J. Cell. Physiol., 109: 411-419, 1981). Briefly, the selected mitotic cells were seeded into 8 tissue culture flasks (25 sq cm) 5000 cells per flask. The cells divided within 1 hr and attached as doublets to the bottom of the flasks. […] Analyses of durations of mitosis were performed from these observations (Table 4).
This is shown by the data in Table 3, where we have used synchronized cells treated over an 8 hr period starting 2 hr after mitotic selection, i.e. when the cells were in early Gl.

NHIK 3025 cells [8] = details: previous studies (Pettersen et al. 1983), cited from earlier work
NHIK 3025 cells [9] = details: previous studies; cited from earlier work
NHIK 3025 cells [10] = assay: Duration of mitosis of synchronized cells; assay type: cell-based, human; details: 3.2 mM during mitosis
Source text: as §2, §3, §4
This effect is probably directly related to the aldehyde group (Pettersen et al. Cancer Res. 45: 2085-2091, 1985). If the deuterated aldehyde group induces different biological effects from the undeuterated one it is therefore good reason to expect this to be expressed as a difference in effect on cells in mitosis. In Table 4 results are shown on prolongation of mitosis of synchronized cells treated with benzaldehyde or deuterobenzaldehyde-d1 during mitosis. The numbers in the table represent the percentage of the cells having a duration of mitosis below 1 hr (which is normal for untreated cells) or above the number of hours indicated on top of each column.

mucous membranes = details: pure form; cited from earlier work
[11] = read-out: Cell survival of cells treated for 24 hr
[12] = read-out: Fraction of cells surviving 24 hr treatment

OC1O[C@@H]2COC(c3ccccc3)O[C@H]2[C@H](O)[C@H]1O (stereo partly drawn) [BG, 4,6-O-benzylidene-D-glucose]
Relative amount of metabolite ([1]; 30 minutes after iv injection, BG sample normalized to 1): 1.00
Relative amount of metabolite ([1]; 45 minutes after iv injection, maximum peak = 1): 0.927 ± 0.008
Protein synthesis inhibition (in words) (NHIK 3025 cells [2]): only protein synthesis inhibition is known to appear during treatment with BG
Protein synthesis (NHIK 3025 cells [3]; asynchronous cells, 3 hr treatment, pulse 0-1 hr, during treatment, Table 8, control 5.7 ± 0.5): 2.9 ± 0.7 %/hr
Protein synthesis (NHIK 3025 cells [3]; asynchronous cells, 3 hr treatment, pulse 2-3 hr, during treatment, Table 8, control 5.7 ± 0.5): 2.9 ± 0.1 %/hr
Protein synthesis (NHIK 3025 cells [3]; synchronized cells, 22 hr treatment, pulse 21-22 hr, during treatment, Table 8, control 5.3 ± 0.2): 4.8 ± 0.5 %/hr
Protein synthesis (NHIK 3025 cells [3]; synchronized cells, 22 hr treatment, pulse 23-24 hr, after treatment, Table 8, control 5.3 ± 0.2): 5.5 ± 0.1 %/hr
viability at 6400 µM (NHIK 3025 cells [4]; [11]): 30 ± 5%
viability at 12800 µM (NHIK 3025 cells [4]; [11]): 0.78 ± 0.18%
Period over which compound is stable in vitro (Stability in vitro): at least 24 hr
half-life in vivo (in words) ([5]; in vivo): relatively short half-life in vivo
Amount of unmetabolized drug in blood samples ([5]; rat, iv, 60 minutes, N.F. = Not Found): N.F.
concentration at 0 h ([5]; serum, rat, iv, 0 minutes (estimated), read-out: Amount of unmetabolized drug in blood samples): 345 µM
concentration at 2 min ([5]; serum, rat, iv, 2 minutes, read-out: Amount of unmetabolized drug in blood samples): 230 ± 16 µM
concentration at 5 min ([5]; serum, rat, iv, 5 minutes, read-out: Amount of unmetabolized drug in blood samples): 110 ± 10 µM
concentration at 10 min ([5]; serum, rat, iv, 10 minutes, read-out: Amount of unmetabolized drug in blood samples): 96 ± 15 µM
concentration at 0.25 h ([5]; serum, rat, iv, 15 minutes, read-out: Amount of unmetabolized drug in blood samples): 66 ± 18 µM
concentration at 20 min ([5]; serum, rat, iv, 20 minutes, read-out: Amount of unmetabolized drug in blood samples): 48 ± 11 µM
concentration at 25 min ([5]; serum, rat, iv, 25 minutes, read-out: Amount of unmetabolized drug in blood samples): 40 ± 5 µM
concentration at 0.5 h ([5]; serum, rat, iv, 30 minutes, read-out: Amount of unmetabolized drug in blood samples): 33 ± 8 µM
half-life ([5]; serum, rat, iv, read-out: half-life in vivo): ~5 min

O=Cc1ccccc1 [Benzaldehyde]
Cell cycle progression (in words) (NHIK 3025 cells [6]): inhibits cell cycle progression
Cell cycle progression (in words) (NHIK 3025 cells [6]; listed as benzaldehyde): cell-cycle progression is reduced
Prolongation (NHIK 3025 cells [7]; 2 mM, versus control 1): 7.9%
Duration of the part of the cell cycle starting 2 hr after selection (NHIK 3025 cells [7]; 2 mM, control 1 16.5): 17.8
Prolongation (NHIK 3025 cells [7]; 2.5 mM, versus control 2): 63.7%
Duration of the part of the cell cycle starting 2 hr after selection (NHIK 3025 cells [7]; 2.5 mM, control 2 16.8): 27.5
Inhibition during mitosis (in words) (NHIK 3025 cells [8]): induces specific inhibition during mitosis
Inhibition during mitosis (in words) (NHIK 3025 cells [8]; listed as benzaldehyde): specific prolongation of mitosis
Inactivation of cells treated during mitosis (in words) (NHIK 3025 cells [9]): inactivated efficiently by benzaldehyde
Protein synthesis inhibition (in words) (NHIK 3025 cells [2]): inhibit protein sythesis in a reversible manner
Protein synthesis inhibition (in words) (NHIK 3025 cells [2]; listed as benzaldehyde): protein synthesis inhibition
Protein synthesis (NHIK 3025 cells [3]; 4 hr treatment, pulse 0-1, during treatment, Table 2, control 6.8 ± 0.9): 3.7 ± 0.3 %/hr
Protein synthesis (NHIK 3025 cells [3]; 4 hr treatment, pulse 4-5, after treatment, Table 2, control 6.8 ± 0.9): 5.1 ± 0.3 %/hr
Protein synthesis (NHIK 3025 cells [3]; 4 hr treatment, pulse 5-6, after treatment, Table 2, control 6.8 ± 0.9): 6.7 ± 0.5 %/hr
Percentage of cells with duration of mitosis >4 h (NHIK 3025 cells [10]): 49%
Percentage of cells with duration of mitosis >5 h (NHIK 3025 cells [10]): 35%
Percentage of cells with duration of mitosis >6 h (NHIK 3025 cells [10]): 21%
Percentage of cells with duration of mitosis >3 h (NHIK 3025 cells [10]; control 2%): 70%
Percentage of cells with duration of mitosis >2 h (NHIK 3025 cells [10]; control 4%): 87%
Percentage of cells with duration of mitosis >1 h (NHIK 3025 cells [10]; control 17%): 95%
Percentage of cells with duration of mitosis <1 h (NHIK 3025 cells [10]; control 83%): 5%
viability at 3200 µM (NHIK 3025 cells [4]; [12]): 64 ± 18%
viability at 12800 µM (NHIK 3025 cells [4]; [12]): 2.4 ± 0.8%
Irritating effect on mucous membranes (mucous membranes): strongly irritating effect on mucous membranes
